Entries after “also recorded” stand apart in the source; their conditions may differ.

Consider one compound from patent publication US9265735B2, “Methods for screening to identify therapeutic agents for Alzheimer's disease and use thereof” (New York University, priority 2010, dated 2016).

In one data set the test system is Cat B. Nature of the data set: Cat B activity by MagicRed-Cathepsin B (MR-Cat B) in PS1KO cells. The conditions noted are these: PS1KO cells; 200 μM, 6 h. The class given is cell-based, Murine. Here is the method: Immunocytochemistry was performed as previously described (Yu et al., 2005). Secondary antibodies used were from Invitrogen: goat anti-mouse/rabbit/rat Alexa Fluor 488 and goat anti-mouse/rabbit/rat Alexa Fluor 568. Cells were imaged using a plan-Apochromat 40× or 100×/1.4 oil DIC objective lens on the laser scanning confocal microscope, LSM 510 META, with LSM software v3.5 (Carl Zeiss MicroImaging Inc). Images were analysed using ImageJ program (NIH). Organelles with low internal pH were labeled by LysoTracker DND-99 dye (Invitrogen) at the final 100 nM for 30 min. Following 4% PFA fixation, cells were further counter stained with Cat D, LMAP1, or LC3 antibody for 4 hrs then visualized with Alexa Fluor 488 conjugated secondary antibody. Active Cat D was labeled by adding Bodipy-FL-pepstatin A directly to the medium at a final concentration of 1 μg/ml for 1 hr. Following 4% PFA fixation, cells were counter stained with Cat D antibody for 4 hrs and visualized with Alexa Fluor 568 conjugated secondary antibody. […] Cells were incubated for 30 min with MR-Cathepsin B prior to mounting them under the confocal microscope. […]
Active Cat D was labeled by adding Bodipy-FL-pepstatin A directly to the medium at a final concentration of 1 mg/ml for 1 hr. […] Cat B staining with MagicRed-Cathepsin B was also measured fluorometrically with a Wallac Victor 2 fluorometer.

The subject of a further data set is p62. Nature of the data set: p62 accumulation in PS1KO cells. The class given is cell-based, Murine. As to conditions: 200 μM, 6 h. Here is the method: Immunoblotting was performed as previously described (Yu et al., 2005). Briefly, cells used for Western blot analysis were lysed in buffer containing 50 mM Tris (pH=7.4), 150 mM NaCl, 1 mM EDTA, 1 mM EGTA, 1% Triton X-100 and 0.5% Tween-20 with protease and phosphatase inhibitors. Following electrophoresis on 4-20% gradient gel (Invitrogen), proteins were transferred onto 0.45 μm PVDF membranes (Millipore) and the membrane was incubated overnight in primary antibody then incubated with HRP conjugated secondary antibody. The blot was developed by ECL-kit (GE Healthcare). To assess v-ATPase V0a subunit glycosylation, lysate from WT and PS1KO cells were either treated for 24 hrs at 37° C. with PNGase F or O-glycanase using an enzymatic deglycosylation kit according to the manufacturer's instructions (PROzyme) or with Endo H (New England Biolabs) for 24 hrs at 37° C. Total glycoproteins were isolated using Glycoprotein Isolation Kit, ConA according to the manufacturer's instructions (Thermo Scientific).

For data set [1] the following is noted: in vivo; cited from earlier work.
The test system of a further data set is LC3 puncta. Description: LC3 puncta by LC3 immunocytochemistry in PS1KO cells. It is filed as cell-based, Murine. As to conditions: 200 μM, 6 h. Here is the method:
Immunocytochemistry was performed as previously described (Yu et al., 2005). Secondary antibodies used were from Invitrogen: goat anti-mouse/rabbit/rat Alexa Fluor 488 and goat anti-mouse/rabbit/rat Alexa Fluor 568. Cells were imaged using a plan-Apochromat 40× or 100×/1.4 oil DIC objective lens on the laser scanning confocal microscope, LSM 510 META, with LSM software v3.5 (Carl Zeiss MicroImaging Inc). Images were analysed using ImageJ program (NIH). Organelles with low internal pH were labeled by LysoTracker DND-99 dye (Invitrogen) at the final 100 nM for 30 min. Following 4% PFA fixation, cells were further counter stained with Cat D, LMAP1, or LC3 antibody for 4 hrs then visualized with Alexa Fluor 488 conjugated secondary antibody. Active Cat D was labeled by adding Bodipy-FL-pepstatin A directly to the medium at a final concentration of 1 μg/ml for 1 hr. Following 4% PFA fixation, cells were counter stained with Cat D antibody for 4 hrs and visualized with Alexa Fluor 568 conjugated secondary antibody. […] Cells were incubated for 30 min with MR-Cathepsin B prior to mounting them under the confocal microscope. To block v-ATPase proton pump activity, ammonium chloride (NH4Cl) was added directly to the medium at a final concentration of 20 mM for 6 hrs prior to LysoTracker addition.

The subject of data set [2] is autophagic vacuoles (AVs). Nature of the data set: AV accumulation by EM morphometry in PS1KO cells. The class given is cell-based, Murine. As to conditions: 200 μM, 6 h. As to the method: Following treatments, cells were prepared for EM as previously described and AVs, identified using previous morphological criteria (Yu et al., 2005), were classified and counted on electron micrographs (7900× print magnification) of 20 EM images from different lines in each experimental group.

In another data set the test system is PS1KO blastocysts. Nature of the data set: Lysosomal pH measurement with Dextran conjugated Lysosensor Yellow/Blue in PS1KO cells. As to conditions: PS1KO cells. The class given is cell-based, Murine. Here is the method:
For results presented in Example 1, quantification of lysosomal pH was determined using Dextran conjugated Lysosensor Yellow/Blue DND-160 (Invitrogen) as follows. Wild Type and PS1KO blastocysts were grown in High Glucose DMEM+15% FBS with antibiotics to ˜90% confluency. Cells were then trypsinized, harvested (1×10^6 cells/ml) and loaded with 1 mg/ml of Lysosensor-dextran for 1 hour at 37° C. with 5% CO2. The cells were then washed 3× in HBSS and aliquoted at […] into a black 96-well microplate. pH calibration was performed according to the protocol established by Diwu et al (Diwu et al., (1999). Chem Biol 6, 411-418). Briefly, wild type and PS1KO blastocysts were treated with 10 μM monensin and 10 uM nigericin in MES buffer (5 mM NaCl, 115 mM KCL, 1.3 mM MgSO4, 25 mM MES), with the pH adjusted to a range from 3.5-7.0. The samples were read in a Wallac Victor 2 fluorimeter (Perkin Elmer) with excitation at 355 nm. The ratio of emission 440/535 nm was then calculated for each sample. The pH values were determined from the linear standard curve generated via the pH calibration samples.
In a more particular embodiment, quantification of lysosomal pH is determined using Dextran conjugated Lysosensor Yellow/Blue (Invitrogen) as follows. 3000 Wild Type and PS1KO blastocysts were seeded in multiple wells of black, clear bottom tissue culture treated 96 well dish and grown in High Glucose DMEM+15% FBS with antibiotics to ˜90% confluency (˜24 hours). 2 ul of 0.5 mg/ml lysosensor-dextran (1:100 dilution of a 5 mg/ml stock) was added and incubated for 1 hour at 37° C. with 5% CO2. The cells were then washed 3× in HBSS. See also methods and results set forth herein below in Example 2. This modified protocol represents an optimized protocol for the purposes set forth herein.
Quantification of lysosomal pH was determined using Dextran conjugated Lysosensor Yellow/Blue (Invitrogen). 3000 Wild Type and PS1KO blastocysts were seeded in multiple wells of black, clear bottom tissue culture treated 96 well dish and grown in High Glucose DMEM+15% FBS with antibiotics to ˜90% confluency (˜24 hours). 2 ul of 0.5 mg/ml lysosensor-dextran (1:100 dilution of a 5 mg/ml stock) was added and incubated for 1 hour at 37° C. with 5% CO2. The cells were then washed 3× in HBSS.
Performed according to the protocol established by Diwu et al (supra). Briefly, wild type and PS1KO blastocysts were treated with 10 uM monensin and 10 uM nigericin in MES buffer (5 mM NaCl, 115 mM KCL, 1.3 mM MgSO4, 25 mM MES), with the pH adjusted to a range from 3.5-7.0 for 7-10 min prior to lysosensor addition (the additional hour in the buffer seems to have no effect), these cells are not washed in HBSS since permeabilization with ionophores makes them susceptible to detachment.
The samples were read in a Wallac Victor 2 fluorimeter (Perkin Elmer) with excitation at 355 nm. The ratio of emission 440 nm/535 nm was then calculated for each sample. pH values were determined from the linear std curve generated via the pH calibration samples.

In a further data set the test system is tau. The conditions noted are these: rats; bilateral injection into the hippocampus; cited from earlier work.

As for `CC(C)NCC(O)c1ccc(O)c(O)c1` (centres unmarked) [isoproterenol], the “Cat B activity as measured by MR-Cat B” value in the data set with Cat B is reported as “restored to WT levels”. The p62 accumulation entry in the data set on p62 was “reversed”. In addition, the “crossing of the blood brain barrier (BBB)” value in data set [1] is recorded as “cross the blood brain barrier”. Also, the “LC3 puncta accumulation determined by LC3 ICC” value with LC3 puncta is “reversed”. In addition, in data set [2], the “AV accumulation by EM morphometry (total area occupied by AVs per EM field)” value was “reversed”. Further, the “lysosomal pH” value in the data set on PS1KO blastocysts (200 μM, 6 h) is “restored to WT levels”. Besides, in the data set on PS1KO blastocysts (FIG. 10A/G), the “effect on elevated lysosomal pH in PS1KO cells” value was “normal levels or even hyperacidic levels; also recorded: restored to WT levels”. Also, in the data set with tau, the “tau phosphorylation and spatial memory” value is “induces Alzheimer-like hyperphosphorylation of tau and spatial memory defects”.
